Laboratory results from ChEMBL document CHEMBL1201862, “PubChem BioAssay data set” (2004).
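Grown in 96-well plates, cells were treated for 48 hours with each compound at five concentrations. Insufficient inhibition: endpoint recorded as highest concentration tested. GI50 marks 50% less growth.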 The source made the active and inactive calls. Cut-off read from the data, not from the text of the source: active = GI50 up to about 1.1 µM and inactive = higher.

What was measured:
Assay in all cases: growth of human tumour cells (NCI), 48 h
HOP-62 = system: HOP-62
T47D = system: T47D
KM12 = system: KM12
HOP-92 = system: HOP-92
HCT-15 = system: HCT-15
NCI-H23 = system: NCI-H23
MDA-MB-435 = system: MDA-MB-435
SW-620 = system: SW-620
A498 = system: A498
CAKI-1 = system: CAKI-1
A549 = system: A549
HCT-116 = system: HCT-116
EKVX = system: EKVX
HL-60 = system: HL-60
OVCAR-4 = system: OVCAR-4
MOLT-4 = system: MOLT-4
MDA-N = system: MDA-N
LOX IMVI = system: LOX IMVI
UACC-257 = system: UACC-257
NCI-H522 = system: NCI-H522
OVCAR-8 = system: OVCAR-8
SNB-19 = system: SNB-19
M14 = system: M14
SK-MEL-28 = system: SK-MEL-28
NCI-H460 = system: NCI-H460
PC-3 = system: PC-3
K562 = system: K562
HT-29 = system: HT-29
SNB-75 = system: SNB-75
NCI-H226 = system: NCI-H226
BT-549 = system: BT-549
Malme-3M = system: Malme-3M
RPMI-8226 = system: RPMI-8226
786-0 = system: 786-0
UACC-62 = system: UACC-62
DU-145 = system: DU-145
SN12C = system: SN12C
IGROV-1 = system: IGROV-1
MDA-MB-231 = system: MDA-MB-231
OVCAR-5 = system: OVCAR-5
SK-MEL-5 = system: SK-MEL-5
SR = system: SR
NCI/ADR-RES = system: NCI/ADR-RES
U-251 = system: U-251
OVCAR-3 = system: OVCAR-3
UO-31 = system: UO-31
SK-MEL-2 = system: SK-MEL-2
SF-295 = system: SF-295
TK-10 = system: TK-10
SF-268 = system: SF-268
RXF 393 = system: RXF 393
ACHN = system: ACHN
SF-539 = system: SF-539
CCRF-CEM = system: CCRF-CEM
HCC 2998 = system: HCC 2998
SK-OV-3 = system: SK-OV-3
Hs-578T = system: Hs-578T
COLO 205 = system: COLO 205
MCF7 = system: MCF7

Measured: GI50

O=C(O)C(O)(c1ccc(-c2ccccc2)cc1)c1ccc(-c2ccccc2)cc1
inactive: HOP-62 20.1 µM | T47D 41.6 µM | KM12 19.9 µM | HOP-92 19.1 µM | NCI-H23 18.9 µM | MDA-MB-435 19.5 µM | SW-620 32.4 µM | A498 23.3 µM | CAKI-1 28.8 µM | A549 40.4 µM | HCT-116 23.5 µM | EKVX 24.3 µM | HL-60 21.5 µM | OVCAR-4 36 µM | MOLT-4 42.2 µM | MDA-N 17.1 µM | LOX IMVI 17.9 µM | UACC-257 36.1 µM | NCI-H522 18.9 µM | OVCAR-8 32.5 µM | SNB-19 49.4 µM | M14 35 µM | SK-MEL-28 35.3 µM | NCI-H460 20.4 µM | PC-3 27 µM | K562 80.9 µM | HT-29 30.2 µM | SNB-75 17.1 µM | NCI-H226 26.9 µM | BT-549 20.5 µM | Malme-3M 23.1 µM | RPMI-8226 56.6 µM | 786-0 24.5 µM | UACC-62 18.1 µM | DU-145 16.6 µM | SN12C 22 µM | IGROV-1 23.4 µM | MDA-MB-231 28.3 µM | OVCAR-5 26.7 µM | SK-MEL-5 18.9 µM | SR 47.5 µM | NCI/ADR-RES 24.5 µM | U-251 17.1 µM | OVCAR-3 15 µM | UO-31 42 µM | SK-MEL-2 14.1 µM | SF-295 34 µM | TK-10 37.6 µM | SF-268 24.3 µM | RXF 393 22 µM | ACHN 32.1 µM
19.2 µM: HCT-15

CC(C)(C)OC(=O)N(CCCCN(CCCNC(=O)C(F)(F)F)C(=O)OC(C)(C)C)CCCNC(=O)C(F)(F)F
inactive: HOP-62 38.7 µM | T47D > 100 µM | KM12 > 100 µM | HOP-92 > 100 µM | NCI-H23 > 100 µM | MDA-MB-435 > 100 µM | SW-620 > 100 µM | A498 > 100 µM | CAKI-1 47.1 µM | A549 > 100 µM | HCT-116 > 100 µM | SF-539 > 100 µM | EKVX > 100 µM | HL-60 60.3 µM | OVCAR-4 > 100 µM | MOLT-4 71.9 µM | LOX IMVI > 100 µM | UACC-257 > 100 µM | NCI-H522 24 µM | OVCAR-8 > 100 µM | SNB-19 > 100 µM | M14 > 100 µM | CCRF-CEM > 100 µM | SK-MEL-28 > 100 µM | NCI-H460 > 100 µM | HCC 2998 > 100 µM | PC-3 > 100 µM | K562 98.9 µM | HT-29 > 100 µM | SNB-75 > 100 µM | SK-OV-3 > 100 µM | NCI-H226 > 100 µM | BT-549 > 100 µM | RPMI-8226 37.7 µM | 786-0 > 100 µM | UACC-62 > 100 µM | DU-145 > 100 µM | SN12C > 100 µM | Hs-578T > 100 µM | IGROV-1 > 100 µM | MDA-MB-231 > 100 µM | COLO 205 > 100 µM | OVCAR-5 > 100 µM | MCF7 > 100 µM | SK-MEL-5 79.3 µM | SR > 100 µM | NCI/ADR-RES 91.2 µM | U-251 > 100 µM | OVCAR-3 45.3 µM | UO-31 > 100 µM | SK-MEL-2 > 100 µM | SF-295 > 100 µM | TK-10 > 100 µM | SF-268 > 100 µM | RXF 393 > 100 µM | ACHN > 100 µM
> 100 µM: HCT-15
